The values that follow come from ChEMBL document CHEMBL5729105, “CD73 inhibitors” (2022).

The structures appear in SMILES notation.

What is called IC50 is the concentration that gives 50% inhibition. A lower IC50 goes with inhibition by little substance.

The experiment concerns the target 5'-nucleotidase (Homo sapiens, UniProt P21589). Description: Biochemical Assay: Assay Reaction ConditionsAssay Volume: 70 μlReaction Volume: 50 μlCD73: 0.3208 nMAMP: 15 μMAssay Buffer: 25 mM Tris-HCL, pH 7.4, 0.01% Brij-35, 0.01% BSA, 5 mM MgCl2Assay Procedure:Used 384 clear plate.Made dose titration of testing compounds in assay buffer, 10 points ½ log titrations in duplicates starting at 100 μM.Added 25 μl of CD73 to each well for a final concentration of 320 pM.Incubated at RT for 15 min.Added 25 μl of AMP to each well for a final concentration of 15 μM.Incubated at RT for 10 min.Added 10 μl of Malachite Green Reagent A, incubate at RT for 10 min.Added 10 of Malachite Green Reagent B, incubate at RT for 45 min.Read the Absorbance on Envision plate reader using excitation filter: Cy5 620 nM.The ability of the compounds disclosed herein to inhibit CD73 activity was quantified and the respective IC50 values were determined.

Sequence of 5'-nucleotidase (P21589 whole entry): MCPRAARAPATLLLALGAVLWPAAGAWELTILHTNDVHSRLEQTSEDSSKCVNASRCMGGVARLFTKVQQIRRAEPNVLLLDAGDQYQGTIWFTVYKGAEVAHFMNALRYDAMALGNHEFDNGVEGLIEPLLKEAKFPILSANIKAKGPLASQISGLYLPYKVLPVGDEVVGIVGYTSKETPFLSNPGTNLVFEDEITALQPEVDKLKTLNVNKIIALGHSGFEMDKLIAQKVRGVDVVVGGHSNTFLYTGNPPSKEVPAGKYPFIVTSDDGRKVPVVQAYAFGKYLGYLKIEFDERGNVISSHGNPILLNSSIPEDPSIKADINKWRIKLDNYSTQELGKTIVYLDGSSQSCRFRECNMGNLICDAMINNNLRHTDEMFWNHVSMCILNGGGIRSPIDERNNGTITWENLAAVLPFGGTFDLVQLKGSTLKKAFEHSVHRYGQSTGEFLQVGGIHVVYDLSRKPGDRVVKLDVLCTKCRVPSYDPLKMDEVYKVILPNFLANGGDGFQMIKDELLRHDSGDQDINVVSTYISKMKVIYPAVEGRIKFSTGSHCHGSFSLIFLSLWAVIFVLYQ

`O=P(O)(O)[C@H](CO)OC[C@H]1O[C@@H](n2ncc3c(NC4CCCC4)nc(Cl)nc32)[C@H](O)[C@@H]1O` (single isomer, unassigned) yielded a half-inhibitory concentration (IC50) of less than 100 nM.
